“And” between values parts separate entries of the source, which are not always exact repeats. Identical values can stand only once.
Test: Dosimetry sub-study, first 12 patients, cycle 1 (SPECT/CT, TIAC, OLINDA 2.2.3)
Type: in vivo, human
Conditions: for dose estimate, Mean: Eclipse; for Extrapolation of Absorbed Dose to 6 Cycles Assuming 7.4 GBq per cycle: kidneys; for Kidneys Absorbed Dose Assuming 7.4 GBq per cycle: one cycle; for Effective Dose Cycle 1: whole body
Method: Twelve subjects were administered a target activity of 7.4 GBq (mean 7.56±0.17 GBq) of [^177Lu]Lu-PSMA-I&T. Following the infusion, subjects underwent single photon emission computed tomography (SPECT)/computed tomography (CT) imaging at four timepoints (4 hours, 24 hours, 48 hours, and 168 hours). Image data was analyzed to compute time integrated activity coefficients (TIAC) in each organ of interest defined a priori in the independent review charter and in organs showing appreciable and meaningful [^177Lu]Lu-PSMA I&T activity. Segmented organs included kidneys, bladder, liver, lacrimal glands, salivary glands, intestine, lumbar vertebrae L2-L4, and whole body. To compute subject-specific organ doses, organ-level TIAC data were entered into Organ Level Internal Dose Assessment (OLINDA 2.2.3) and resulting organ doses for each target organ and whole-body effective dose were collated and averaged.
Patients received SPECT/CT imaging (anatomical coverage included the salivary gland in most of the patients and extended through the pelvis) following the injection of 7.4 (±10%) GBq of [^177Lu]Lu-PSMA-I&T (detailed injected doses are reported in Table 36). All patients completed the first treatment cycle, and the acquisition of images was carried out. To note, for patient 37-016 the 168 hours SPECT/CT timepoint wasn't acquired, whereas patient 12-004 48 hours scan was presenting unrealistically high values, and the 48 hours scan was therefore excluded from further analysis.
The imaging data was analyzed using Invicro's VivoQuant software, a validated software used in a 21 CFR § 11-compliant workflow. The general quantification approach was based on the principles detailed in the Medical Internal Radiation Dose (MIRD) Pamphlet No. 16, No 23, and No 26, as appropriate.
Each SPECT image was co-registered with its corresponding CT. Image calibration was performed to convert the counts measured on the SPECT images to activity (Bq). The same SPECT/CT system was used in each patient for the entirety of the dosimetry study.
Regions of interest (ROI) (kidneys, bladder, liver, lumbar vertebrae L2-L4, lacrimal glands, salivary glands (parotid and submandibular glands), and whole body) were drawn on each dataset by a trained image analyst. […] Lumbar vertebrae L2-L4 was delineated for all patients on the CT images to derive red marrow doses.^4 For kidneys, a ROI was drawn on the SPECT image encompassing all the uptake seen in the kidneys. Similarly for lacrimal glands, all the uptake observed on the SPECT image at the lacrimal glands' location was segmented. [^177Lu]Lu-PSMA-I&T distribution in a patient imaged over time is represented in FIG. 16.
Time-activity curves of the activity in each ROI as a function of time were plotted. These curves were normalized by the known injected activity to arrive at units of fraction of injected activity. Calculations of time-integrated activity coefficient (TIAC, in units of hours) were performed for each region of interest listed above.
Clearance of the tracer was derived from a data-appropriate fit of each organ time activity curve (TAC). Depending on the shape of the TAC, the data was fitted with the sum of one, two or three exponentials or using a rise and fall model. TIACs were calculated through analytical integration of the curve fit extrapolated to infinite. […] The remainder activity was determined by subtracting the cumulative organ TIACs from the whole body TIAC.
Organ TIACs were inputted into Organ Level Internal Dose Assessment, OLINDA 2.2.3 for the computation of organ and whole-body absorbed doses and effective dose (computed using ICRP-103 weighing factors). ICRP-89 derived male phantom was used for dose estimation. Organs and body weights as defined by ICRP-89 were scaled based on height and mass using the patient effective mass. Kidney volumes were measured for each patient on the CT images and used for the kidneys mass of the ICRP-89 phantom assuming a density of 1 g/ml. […]

[1] = individual subjects, listed as [^177Lu]Lu-PSMA-I&T

O=C([O-])CC[C@H](NC(=O)N[C@@H](CCCCNC(=O)CCCCCCC(=O)NCCCC[C@@H](NC(=O)[C@@H](Cc1ccccc1)NC(=O)[C@@H](Cc1ccc(O)c(I)c1)NC(=O)CC[C@H](C(=O)[O-])N1CCN(CC(=O)[O-])CCN(CC(=O)[O-])CCN(CC(=O)[O-])CC1)C(=O)[O-])C(=O)[O-])C(=O)[O-].[177Lu+3].[H+].[H+].[H+].[H+].[H+] [^177Lu-PSMA I&T, (3S,7S,26R,29R,32R,37R)-29-benzyl-32-(4-hydroxy-3-iodobenzyl)-5,13,20,28,31,34-hexaoxo-37-(4,7,10-tris(carboxymethyl)-1,4,7,10-tetraazacyclododecan-1-yl)-4,6,12,21,27,30,33-heptaazaheptatriacontane-1,3,7,26,37-pentacarboxylic acid; lutetium-177 (III)]
Mean whole body effective dose (12 patients, cycle 1): 0.095±0.048 mSv/MBq | Whole-body time integrated activity coefficient, mean (12 patients, cycle 1): 24.1 ± 18.7 h | absorbed dose, kidneys (12 patients, cycle 1): 0.43±0.18 Gy/GBq | absorbed dose, lacrimal glands (12 patients, cycle 1): 0.67±0.33 Gy/GBq | absorbed dose, left colon (12 patients, cycle 1): 0.54±0.42 Gy/GBq | absorbed dose, rectum (12 patients, cycle 1): 0.52±0.40 Gy/GBq | absorbed dose, red marrow (12 patients, cycle 1): 0.08±0.15 Gy/GBq | absorbed dose, right colon (12 patients, cycle 1): 0.30±0.23 Gy/GBq | absorbed dose, salivary glands (12 patients, cycle 1): 0.13±0.08 Gy/GBq | absorbed dose, urinary bladder wall (12 patients, cycle 1): 0.38±0.03 Gy/GBq | Whole-body time integrated activity coefficients, mean (12 patients, cycle 1, 7.4 GBq): 24.1 ± 18.7 h | estimated absorbed dose for the kidneys after 6 cycles, max (12 patients, 7.4 GBq per cycle): 35.83 Gy | estimated absorbed dose for the kidneys after 6 cycles, min (12 patients, 7.4 GBq per cycle): 9.9 Gy | estimated mean absorbed dose for the kidneys after 6 cycles (12 patients, 7.4 GBq per cycle, listed as [^177Lu]Lu-PSMA-I&T): 19.3 Gy and 19.3±8.0 Gy | Absorbed Dose, Mean (Adrenals, cycle 1, 12 patients): 0.03 Gy/GBq | Absorbed Dose, Mean (Brain, cycle 1, 12 patients): 0.02 Gy/GBq | Absorbed Dose, Mean (Esophagus, cycle 1, 12 patients): 0.02 Gy/GBq | Absorbed Dose, Mean (Eyes, cycle 1, 12 patients): 0.02 Gy/GBq | Absorbed Dose, Mean (Gallbladder Wall, cycle 1, 12 patients): 0.02 Gy/GBq | dose estimate, Mean (Heart Wall): 0.02 Gy/GBq | Absorbed Dose, Mean (Heart Wall, cycle 1, 12 patients): 0.02 Gy/GBq | dose estimate, Mean (Kidneys): 0.43 Gy/GBq | Absorbed Dose, Mean (Kidneys, cycle 1, 12 patients): 0.43 Gy/GBq | dose estimate, Mean (Lacrimal gland): 0.67 Gy/GBq | Absorbed Dose, Mean (Lacrimal glands (OLINDA sphere model), cycle 1): 0.67 Gy/GBq | dose estimate, Mean (Left colon): 0.54 Gy/GBq | Absorbed Dose, Mean (Left colon, cycle 1, 12 patients): 0.54 Gy/GBq | dose estimate, Mean (Liver): 0.04 Gy/GBq | Absorbed Dose, Mean (Liver, cycle 1, 12 patients): 0.04 Gy/GBq | Absorbed Dose, Mean (Lungs, cycle 1, 12 patients): 0.02 Gy/GBq | Absorbed Dose, Mean (Osteogenic Cells, cycle 1, 12 patients): 0.05 Gy/GBq | Absorbed Dose, Mean (Pancreas, cycle 1, 12 patients): 0.02 Gy/GBq | Absorbed Dose, Mean (Prostate, cycle 1, 12 patients): 0.02 Gy/GBq | dose estimate, Mean (Rectum): 0.52 Gy/GBq | Absorbed Dose, Mean (Rectum, cycle 1, 12 patients): 0.52 Gy/GBq | dose estimate, Mean (Red Marrow): 0.08 Gy/GBq | Absorbed Dose, Mean (Red Marrow, cycle 1, 12 patients): 0.08 Gy/GBq | dose estimate, Mean (Right colon): 0.30 Gy/GBq | Absorbed Dose, Mean (Right colon, cycle 1, 12 patients): 0.30 Gy/GBq | Absorbed Dose, Mean (Salivary Glands, cycle 1, 12 patients): 0.13 Gy/GBq | dose estimate, Mean (Salivary glands): 0.13 Gy/GBq | Absorbed Dose, Mean (Small Intestine, cycle 1, 12 patients): 0.06 Gy/GBq | dose estimate, Mean (Spleen): 0.03 Gy/GBq | Absorbed Dose, Mean (Spleen, cycle 1, 12 patients): 0.03 Gy/GBq | Absorbed Dose, Mean (Stomach Wall, cycle 1, 12 patients): 0.02 Gy/GBq | Absorbed Dose, Mean (Testes, cycle 1, 12 patients): 0.02 Gy/GBq | Absorbed Dose, Mean (Thymus, cycle 1, 12 patients): 0.02 Gy/GBq | dose estimate, Mean (Thyroid): 0.02 Gy/GBq | Absorbed Dose, Mean (Thyroid, cycle 1, 12 patients): 0.02 Gy/GBq | Absorbed Dose, Mean (Total Body, cycle 1, 12 patients): 0.03 Gy/GBq | Absorbed Dose, Mean (Urinary Bladder Wall, cycle 1, 12 patients): 0.38 Gy/GBq | dose estimate, Mean (Urinary bladder wall): 0.38 Gy/GBq | Whole Body TIAC (cycle 1, Mean of 12 subjects): 24.1 h | Kidneys Absorbed Dose (cycle 1, Mean of 12 subjects (Table 41)): 0.43 Gy/GBq | Kidneys Absorbed Dose (cycle 1, individual subjects (Table 41), listed as [^177Lu]Lu-PSMA-I&T): 0.64 Gy/GBq and 0.34 Gy/GBq and 0.81 Gy/GBq and 0.29 Gy/GBq and 0.27 Gy/GBq (2×) and 0.22 Gy/GBq and 0.48 Gy/GBq and 0.32 Gy/GBq and 0.54 Gy/GBq and 0.41 Gy/GBq and 0.57 Gy/GBq | Whole Body TIAC (cycle 1, individual subjects, listed as [^177Lu]Lu-PSMA-I&T): 8.2 h and 17.2 h and 41.7 h and 14.4 h and 69.7 h and 43.7 h and 11.1 h and 12.6 h and 19.7 h and 14.2 h and 8.5 h and 27.6 h | Kidneys Absorbed Dose (cycle 1, individual subjects, listed as [^177Lu]Lu-PSMA-I&T, absorbed dose per injected activity, Gy/GBq): 0.27 Gy/GBq (2×) and 0.22 Gy/GBq and 0.48 Gy/GBq and 0.32 Gy/GBq and 0.54 Gy/GBq and 0.41 Gy/GBq and 0.57 Gy/GBq and 0.64 Gy/GBq and 0.34 Gy/GBq and 0.81 Gy/GBq and 0.29 Gy/GBq | Kidneys Absorbed Dose (cycle 1, individual subjects, listed as [^177Lu]Lu-PSMA-I&T, total absorbed dose, Gy): 2.00 Gy and 2.36 Gy and 3.99 Gy and 3.08 Gy and 4.48 Gy and 2.26 Gy | Extrapolation of Absorbed Dose to 6 Cycles Assuming 7.4 GBq per cycle (Mean of 12 subjects): 19.3 Gy | Extrapolation of Absorbed Dose to 6 Cycles Assuming 7.4 GBq per cycle [1]: 28.5 Gy and 15.0 Gy and 35.8 Gy and 13.0 Gy and 11.8 Gy and 9.9 Gy and 21.3 Gy and 12.0 Gy and 14.0 Gy and 23.8 Gy and 18.0 Gy and 25.1 Gy | Kidneys Absorbed Dose Assuming 7.4 GBq per cycle (Mean of 12 subjects): 3.2 Gy | Kidneys Absorbed Dose Assuming 7.4 GBq per cycle [1]: 4.8 Gy and 2.5 Gy and 6.0 Gy and 2.2 Gy and 2.0 Gy (2×) and 1.7 Gy and 3.6 Gy and 2.3 Gy and 4.0 Gy and 3.0 Gy and 4.2 Gy | Effective Dose Cycle 1 (Mean of 12 subjects): 0.09 mSv/MBq | Effective Dose Cycle 1 [1]: 0.03 mSv/MBq (2×) and 0.09 mSv/MBq and 0.12 mSv/MBq and 0.11 mSv/MBq (2×) and 0.16 mSv/MBq and 0.19 mSv/MBq and 0.07 mSv/MBq (2×) and 0.06 mSv/MBq and 0.08 mSv/MBq

Reference: patent US20250041461A1, “[177LU] LUTETIUM-PSMA I&T COMPOSITION AND DOSIMETRY, KIT, METHOD OF MAKING, AND METHOD OF USING THEREOF” (Curium US LLC, priority 2023, published 2025)
